Molecules are shown by their SMILES.

In the first assay the target is AM2 S31 (wild-type serine at position 31 in the M2 protein), influenza virus A/Udorn/72 (Influenza A virus, UniProt P0DOF5). Put plainly: cell-based. The note with it: 100 uM; Xenopus oocytes; activity range class; read-out: S31 OOcyte Inhibition at 100 uM (%).
AM2 S31 (wild-type serine at position 31 in the M2 protein), influenza virus A/Udorn/72, sequence (P0DOF5 whole entry, looked up): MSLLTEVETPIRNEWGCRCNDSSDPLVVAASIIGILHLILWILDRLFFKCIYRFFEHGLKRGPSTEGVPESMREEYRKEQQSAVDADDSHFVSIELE
Broadly, the inhibition is the drop in the measured response relative to a control, in per cent. Regarding `c1csc(-c2ccc(CNC34CC5CC(CC(C5)C3)C4)cc2)c1` [Example 29a, N-(4-(Thiophen-2-yl)benzyl)adamantan-1-amine methanesulfonate], the inhibition at 100 µM was in the range of 0 to 30%.

The assay is the same for the next values; noted with them: Table 1; 100 uM; Xenopus oocytes, pH 5.5, -20 mV; read-out: S31 OOcyte Inhibition at 100 uM (%).
Take `CCOc1ccc(CNC23CC4CC(CC(C4)C2)C3)cc1` [Example 20, Adamantan-1-yl-(4-ethoxy-benzyl)-amine]: the inhibition at 100 µM lay in the range of 0 to 30%.
For `c1coc(COc2ccc(CNC34CC5CC(CC(C5)C3)C4)cc2)c1` [Example 21, Adamantan-1-yl-[4-(furan-2-ylmethoxy)-benzyl]-amine], the inhibition at 100 µM lay in the range of 31 to 95%.
With `c1cc(COc2ccc(CNC34CC5CC(CC(C5)C3)C4)cc2)co1` [Example 22, Adamantan-1-yl-[4-(furan-3-ylmethoxy)-benzyl]-amine], the inhibition at 100 µM was 31 to 95%.
For the molecule `CSc1ccc(CNC23CC4CC(CC(C4)C2)C3)cc1` [Example 23, Adamantan-1-yl-(4-methylsulfanyl-benzyl)-amine], the inhibition at 100 µM was 0 to 30%.
For `C[S+]([O-])c1ccc(CNC23CC4CC(CC(C4)C2)C3)cc1` (centres unmarked) [Example 24, Adamantan-1-yl-(4-methanesulfinyl-benzyl)-amine], the inhibition at 100 µM was in the range of 0 to 30%.
For `CS(=O)(=O)c1ccc(CNC23CC4CC(CC(C4)C2)C3)cc1` [Example 25, Adamantan-1-yl-(4-methanesulfonyl-benzyl)-amine], the inhibition at 100 µM fell in the range of 31 to 95%.
Same read-out and setting: for `FC(F)(F)Sc1ccc(CNC23CC4CC(CC(C4)C2)C3)cc1` [Example 26, Adamantan-1-yl-(4-trifluoromethylsulfanyl-benzyl)-amine] the value was 0 to 30%; for `Fc1ccc(CNC23CC4CC(CC(C4)C2)C3)cc1` [Example 27, Adamantan-1-yl-(4-fluoro-benzyl)-amine], 31 to 95%; for `COc1ccccc1CNC12CC3CC(CC(C3)C1)C2` [Example 29, Adamantan-1-yl-(2-methoxy-benzyl)-amine], 0 to 30%.

Still in this assay, the particulars now being: Table 3; 100 uM; Xenopus oocytes, pH 5.5, -20 mV; read-out: S31 OOcyte Inhibition at 100 uM (%).
As for `CC(C)(C)c1ncc(CNC23CC4CC(CC(C4)C2)C3)s1` [Example 20b, N-((2-(tert-butyl)thiazol-5-yl)methyl)adamantan-1-amine], the inhibition at 100 µM was in the range of 0 to 30%.
As to `C1COC(c2nc(CNC34CC5CC(CC(C5)C3)C4)no2)C1` (centres unmarked) [Example 21b, N-((5-(tetrahydrofuran-2-yl)-1,2,4-oxadiazol-3-yl)methyl)adamantan-1-amine], the inhibition at 100 µM lay in the range of 0 to 30%.
For `CC(C)Cc1nc(CNC23CC4CC(CC(C4)C2)C3)no1` [Example 22b, N-((5-isobutyl-1,2,4-oxadiazol-3-yl)methyl)adamantan-1-amine], the inhibition at 100 µM lay in the range of 0 to 30%.
`COCc1nc(CNC23CC4CC(CC(C4)C2)C3)no1` [Example 23b, N-((5-(methoxymethyl)-1,2,4-oxadiazol-3-yl)methyl)adamantan-1-amine]: the inhibition at 100 µM was in the range of 0 to 30%.
As to `C1CCC(c2nc(CNC34CC5CC(CC(C5)C3)C4)no2)CC1` [Example 24b], the inhibition at 100 µM lay within 31 to 95%.
In the case of `Cc1noc(C)c1-c1nc(CNC23CC4CC(CC(C4)C2)C3)no1` [Example 25b, N-((5-(3,5-dimethylisoxazol-4-yl)-1,2,4-oxadiazol-3-yl)methyl)adamantan-1-amine], the inhibition at 100 µM was 0 to 30%.
In the case of `CCCc1cc(CNC23CC4CC(CC(C4)C2)C3)no1` [Example 26b, N-((5-propylisoxazol-3-yl)methyl)adamantan-1-amine], the inhibition at 100 µM was in the range of 0 to 30%.
In the case of `CC(C)c1cc(CNC23CC4CC(CC(C4)C2)C3)no1` [Example 27b, N-((5-isopropylisoxazol-3-yl)methyl)adamantan-1-amine], the inhibition at 100 µM was in the range of 0 to 30%.
`COc1ccc(Cc2nc(CNC34CC5CC(CC(C5)C3)C4)no2)cc1OC` [Example 28b, N-((5-(3,4-dimethoxybenzyl)-1,2,4-oxadiazol-3-yl)methyl)adamantan-1-amine]: the inhibition at 100 µM is 0 to 30%.

Still in this assay, the particulars now being: pH 5.5, read-out: S31 OOcyte Inhibition at 100 uM (%).
Regarding `Oc1ccccc1CNC12CC3CC(CC(C3)C1)C2` [Example 28, 2-(Adamantan-1-ylaminomethyl)-phenol], the inhibition at 100 µM lay in the range of 31 to 95%.

The values above are taken from US9884832B2 (priority 2011, dated 2018).
